The values below come from patent publication US20080139613A1, “Chemical Compound” (AstraZeneca AB, priority 2006, published 2008).

The nature of data set [1]: Rat pharmacokinetics after intravenous and oral dosing. The format is in vivo. The note with it: male Han Wistar rat; for clearance / half-life / Vd: Alderley Park Han Wistar, whole blood, intravenous 2 mg/kg; for clearance: blood clearance; for half-life: read-out: T½ (converted); for Vd: volume of distribution, read-out: Vdss; for F: bioavailability, oral 2 mg/kg vs intravenous 2 mg/kg. The method, then: The rat pharmacokinetic (PK) parameters blood clearance (CL), volume of distribution (Vdss) and half life (t1/2) are calculated by determining the concentration (exposure) of test compound in whole blood samples taken from rats at various, defined time points subsequent to the intra-venous dosing (administration) of formulated test compound. The rat PK parameter bioavailability (F) is calculated by determining the concentration (exposure) of test compound in whole blood samples taken from rats at various, defined time-points subsequent to the oral dosing (administration) of formulated test compound and then by comparison of the ratio of the dose normalized total oral exposure (AUCpo) with the dose normalized total intra-venous exposure (AUCiv). Fraction absorbed (Fabs) is a secondary PK parameter that is often calculated from a knowledge of the clearance (CL) and bioavailability (F) of a test compound. The equation for determination of Fabs is as follows: […]
where Qh is the species liver blood flow (ml/min/kg).
For intravenous dosing, test compounds are dissolved in dimethyl acetamide (DMA) and then diluted with water such that the final test compound concentration is 1 mg/ml and the composition of the formulation is 40% DMA: 60% water. Male rats (n=2, Alderley Park Han Wistar strain) are then administered, via the tail vein, the test compound formulation at a dose volume of 2 ml/kg bodyweight such that each rat receives a total test compound dose of 2 mg/kg bodyweight. Blood sampling post IV dosing is via needle stick puncture of the tail vein and is serial in design: two rats have blood samples taken at 5, 20, 40, 90, 180, 360, 720 and 1440 (cardiac puncture) minutes after dosing.
For oral dosing, test compounds are dissolved in dimethyl sulphoxide (DMSO and then diluted with hydroxymethyl cellulose (HPMC) 0.5% w/v-Tween 80 (0.1% v/v) such that the final test compound concentration is 1 mg/ml and the composition of the formulation is 5% DMSO:95% HPMC/Tween. Male rats (n=2, Alderley Park Han Wistar strain) are then administered, via oral gavage, the test compound formulation at a dose volume of 2 ml/kg bodyweight such that each rat receives a total test compound dose of 2 mg/kg bodyweight. Blood sampling post oral dosing is via needle stick puncture of the tail vein and is serial in design: two rats have blood samples taken at 15, 30, 60, 120, 180, 360, 720 and 1440 (cardiac puncture) minutes after dosing. All blood samples are collected into lithium heparin tubes to prevent clotting. Aliqouts of blood are then diluted 1:1 with water and then frozen at −20° C. prior to being assayed to determine test compound concentration.
Calibration standard samples are prepared by addition of known amounts of test compound to blank diluted (1:1) blood samples. Calibration standards and unknown samples are then diluted and mixed with 3 parts ice-cold acetonitrile (containing suitable internal standard) to precipitate proteinaceous material. Following centrifugation, sample and calibration standard supernatants are analysed for test compound concentration by HPLC with MS/MS (triple quad mass spectrometry) detection. Quantification of test compound concentrations in the blood samples taken from the rats is achieved by reference to a standard curve constructed from the calibration standard samples.
Blood concentration—time point data and other information such as IV and PO dose is then entered into and analysed by a commercially available non-linear regression software program (WinNonLin version 4.1, Pharsight Corporation) to determine the rat PK parameters of interest (as described above).

In the next data set the target is T1, CCR5 (Homo sapiens, UniProt P51681).
T1 construct: After 21 to 34 days culture, the membranes were prepared from the cells; endogenous in cells; host or cells: Allo-T cells (allo-reactive T cell line from human PBMCs), membrane preparation
In words: Displacement of radio-labelled CCR5 antagonist from Allo-T cell membranes. In kind it is binding. The note with it: membranes of human allo-reactive T cells; 2 nM [3H] CCR5 antagonist; 2 hours at room temperature. The method, then:
The ability of the compound of the present invention to inhibit the binding of MIP-1β (CCL-4) was measured:
An allo-reactive T cell line was generated by exposure of human peripheral blood mononuclear cells (PBMCs) to L-DR4/B7 fibroblasts (immobilised with glutaraldehyde fixation and irradiation) and subsequent expansion with anti-CD3 and IL-2 for 14 days. The resultant Allo-T cells were frozen. When required, the cells were grown and re-challenged with irradiated HLA-DR4+ve PBMCs and expanded with anti-CD3 and IL-2. After 21 to 34 days culture, the membranes were prepared from the cells. These membranes were incubated in 96-well plates with 2 nM of the radio-labelled CCR5 antagonist [^3H]1-{(3R)-3-(3,5-difluorophenyl)-3-[4-(methylsulfonyl)phenyl]propyl}-4-(2-{[4-(methylsulfonyl)phenyl]sulfonyl}ethyl)piperidine and various concentrations of the compound of the invention for 2 hours at room temperature. The plates were then harvested onto GF/B filter plates (which had been pre-soaked soaked in 0.3% PEI containing 0.2% BSA for 10 min at 4° C.) using a Packard Unifilter harvester using 10 wash steps. The amount of [^3H]1-{(3R)-3-(3,5-difluorophenyl)-3-[4-(methylsulfonyl)phenyl]propyl}-4-(2-{[4-(methylsulfonyl)phenyl]sulfonyl}ethyl)piperidine retained on the filter plates was determined by scintillation counting. […]

T1 sequence (P51681 whole entry): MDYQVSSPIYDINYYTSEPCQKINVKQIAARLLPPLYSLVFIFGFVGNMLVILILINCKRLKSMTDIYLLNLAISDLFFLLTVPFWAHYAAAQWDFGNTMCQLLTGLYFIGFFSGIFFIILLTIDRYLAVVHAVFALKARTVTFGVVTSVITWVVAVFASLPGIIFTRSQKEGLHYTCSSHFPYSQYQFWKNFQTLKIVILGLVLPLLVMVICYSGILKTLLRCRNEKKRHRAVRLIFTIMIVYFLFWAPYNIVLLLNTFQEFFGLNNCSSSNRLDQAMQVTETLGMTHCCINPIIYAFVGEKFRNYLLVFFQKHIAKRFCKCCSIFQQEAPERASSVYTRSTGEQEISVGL

Regarding `CCc1nnc(C(C)C)n1C1CCN([C@H](C)C[C@@H](c2cc(F)cc(F)c2)C2CCN(S(C)(=O)=O)CC2)CC1` (single isomer, unassigned), in data set [1], the clearance was found to be 18 mL/min/kg, the half-life is 4 h, the Vd was 4.1 L/kg and the F is recorded as 28%. Moreover, at CCR5, the IC50 was 6.5 nM.
The matching figures for `Cc1nnc(C(C)C)n1C1CCN(C(C)C[C@@H](c2cc(F)cc(F)c2)C2CCN(S(C)(=O)=O)CC2)CC1` (single isomer, unassigned) [Comparator Compound A]: 37 mL/min/kg, 2.7 h, 4.9 L/kg, 1% and 32 nM.

The term IC50 denotes the concentration needed to halve the response being measured. Low readings indicate inhibition by little substance, high ones a need for much substance.
